Data taken from patent publication US5026829A, “Cyclo substituted propyleneamine oxime and its use as a brain imaging agent” (University of Cincinnati, priority 1989, dated 1991).

What was measured:
[1] = In vitro stability of 99m-Tc-CB-PAO after pH lowering with gentisic acid; assay type: physicochemical; conditions: about 6mM gentisic acid solution added
Protocol: The d,l isomer is then complexed with 99m-technetium to obtain a brain perfusion imaging agent. To formulate the 99m-Tc-d,l-CB-PAO 5ml of a ligand solution is placed into an evacuated 10 ml vial. The ligand solution contained approximately 0.5 mg/ml of ligand. One hundred and fifty microliters of a tin chloride solution containing 10 mg of tin chloride per 50 ml in water was added. Ten to one hundred microliters of 99m-pertechnetate sodium solution eluted from a molybdenum 99 generator is added to the vial and this is shaken for 10 seconds. An imaging solution can be immediately removed for use.
However, it is preferable that the pH of the solution which upon addition of the stanous chloride is about 8.9 be lowered. Accordingly, gentisic acid was used to lower the pH of the complex. A solution of gentisic acid was made by dissolving 0.0303g of gentisic acid and 30ml saline. 3.0 milliliters of this solution was pipetted into another vial.
An additional 30ml of saline was added. This latter vial was purged with argon for 50 minutes and sealed to yield a solution of about […] in gentisic acid. 1.0-1.2ml of the above solution was added to a 10 ml evacuated vial. 2.5 milliliters of 99m-Tc-CB-PAO previously prepared is then added to this evacuated vial. This was then tested for stability. At 15 minutes, 100% of the 99m-Tc-CB-PAO remained. At 165 minutes again 100% of the 99m-Tc-CB-PAO remained. At 18 hours 98% of the 99m-Tc-CB-PAO remained.

[2] = Comparative in vitro stability of 99m-Tc CB-PAO and 99m-Tc HM-PAO prepared in the same vial (HPLC); assay type: physicochemical; conditions: for Stabilization: CB relative to HM; for CB/HM: ratio of CB to HM percentage; for in vitro stability, in words: 13.4 hours; for percentage of 99m-Tc complex (CB or HM): same vial, HPLC
Protocol: In order to test the in vitro stability of the 99m-Tc-CB-PAO, 99m-Tc-CB-PAOand 99m-Tc-HMPAO were prepared in the same vial. The CB-PAO and HM-PAO agents were both reacted with pertechnetate in the same vial. This insures that both compositions were subjected to the same characteristics. These were then tested using HPLC. The results showing the percentage of 99m-Tc CB-PAO (labeled CB) and 99m-Tc HM-PAO labeled HM are shown in Table 1 over a period of 0 minutes to 13.4 hours.

[3] = Whole body biodistribution by single photon emission computed tomography in normal human volunteers; assay type: in vivo; conditions: intravenous, about 13 millicurries, in %
Protocol: (§1) In order to test the whole body biodistribution of the 99m-Tc CB-PAO tracer, three normal human volunteers were tested using single photon emission computed tomography. Whole body images were obtained at 15 minutes, two hours and five hours after an intraveneous injection of about 13 millicurries of Tc-99m d,l-CB-PAO. A dynamic study during the first ten minutes after administration of the tracer defined the time activity curve for brain uptake. The tomographic study was performed at one hour after administration. Venous blood samples were collected at various times up to five hours after administration and urine was collected up to 24 hours after administration.

[4] = Brain uptake, retention and tomographic brain imaging in normal human volunteers; assay type: in vivo
Protocol: as §1
The decrease in cerebral activity is only about 5% between 15 minutes and 2 hours after injection. Approximately 24% of the injected dose is cleared through the renal system within five hours and approximately 37% is cleared within 24 hours.

[5] = Renal clearance (urine collection) in normal human volunteers; assay type: in vivo
Protocol: as §1

[6] = cited from earlier work
[7] = background statement; cited from earlier work

Structure (SMILES): CC1=[N+]([O-])[99Tc-2]23(=[O])[N](CC4(CCC4)C[N]2C(C)C(C)=[N+]3O)C1C (racemic) [99m-Tc CB-PAO]
- 99m-Tc-CB-PAO remaining ([1]; 15 minutes): 100%
- 99m-Tc-CB-PAO remaining ([1]; 165 minutes): 100%
- 99m-Tc-CB-PAO remaining ([1]; 18 hours): 98%
- Stabilization ([2]; 23 min): 30%
- CB/HM ([2]; 23 min): 1.85
- Stabilization ([2]; 74 min): 50%
- CB/HM ([2]; 74 min): 2.04
- Stabilization ([2]; 3.3 h): 53%
- CB/HM ([2]; 3.3 h): 2.11
- Stabilization ([2]; 12.2 h): 140%
- CB/HM ([2]; 12.2 h): 3.29
- Stabilization ([2]; 13.4 h): 160%
- CB/HM ([2]; 13.4 h): 3.58
- in vitro stability, in words [2]: most of the 99m-Tc CB-PAO remained
- Stabilization ([2]; time 0): 0%
- CB/HM ([2]; time 0): 1.40
- percentage of 99m-Tc complex (CB or HM) ([2]; time 0): 55.2%
- in vitro stability compared with the prior art brain imaging agent, in words ([2]; vs 99m-Tc HM-PAO): substantially more stable in vitro than the prior art brain imaging agent
- Whole body distribution, Bladder & Urine ([3]; 15'): 4.2 ± 1.36
- Whole body distribution, Blood ([3]; 15'): 14.9 ± 0.79
- Whole body distribution, Brain ([3]; 15'): 3.6 ± 0.26
- Whole body distribution, Gallbladder ([3]; 15'): 2.2 ± 0.05
- Whole body distribution, Liver ([3]; 15'): 26.4 ± 7.1
- Whole body distribution, Lungs ([3]; 15'): 4.0 ± 0.85
- Whole body distribution, Bladder & Urine ([3]; 2h): 19.4 ± 8.4
- Whole body distribution, Blood ([3]; 2h): 8.3 ± 0.7
- Whole body distribution, Brain ([3]; 2h): 3.5 ± 0.15
- Whole body distribution, Gallbladder ([3]; 2h): 2.8 ± 0.7
- Whole body distribution, Liver ([3]; 2h): 25.4 ± 7.
- Whole body distribution, Lungs ([3]; 2h): 3.1 ± 0.70
- Whole body distribution, Bladder & Urine ([3]; 5h): 23.5 ± 2.80
- Whole body distribution, Blood ([3]; 5h): 5.8 ± 0.45
- Whole body distribution, Brain ([3]; 5h): 3.5 ± 0.11
- Whole body distribution, Gallbladder ([3]; 5h): 1.7 ± 0.65
- Whole body distribution, Liver ([3]; 5h): 22.3 ± 9.5
- Whole body distribution, Lungs ([3]; 5h): 2.7 ± 0.72
- decrease in cerebral activity ([4]; between 15 minutes and 2 hours after injection): about 5%
- tomographic brain image quality, in words ([4]; tomographic study at one hour after administration): good definition of cerebral structures and good distinction between grey and white matter
- stability of brain uptake, in words ([4]; up to five hours after injection): stable for up to five hours
- injected dose taken up by the brain ([4]; within the first five minutes after intravenous injection): Approximately 3.6 % of the injected dose
- injected dose cleared through the renal system ([5]; within 24 hours): approximately 37 % of the injected dose
- injected dose cleared through the renal system ([5]; within five hours, 300 min): Approximately 24 % of the injected dose

Structure (SMILES): C/C(=N\O)[C@@H](C)NCC(C)(C)CN[C@H](C)/C(C)=N/O [99m-Tc HM-PAO, 4,8,-diaza-3,6,6,9-tetramethyl undecane-2,10-dione bisoxime, metal not drawn]
- in vitro stability, in words [2]: most of the 99m-Tc HM-PAO had decomposed
- percentage of 99m-Tc complex (CB or HM) ([2]; time 0): 39.5%
- aqueous in vitro degradation rate, in words ([6]; J. Nucl. Med. 1988): slow
- time after formulation within which it must be administered ([6]; aqueous, without stabilizer, J. Nucl. Med. 1988): ≤ 30 min
- time after preparation within which it must be used, in words ([6]; stabilized with gentisic acid within 30 seconds after formation): must be used within hours after preparation
- brain passage and retention, in words [7]: passes through the blood brain barrier, is theoretically altered in some way, and remains in the brain for a period of time sufficient to obtain a successful brain image
